One experiment has as its target T1, full-length HAQ STING (Homo sapiens, UniProt Q86WV6, G230A/H232R/R293Q/R71H).
T1 construct: made in house; host or cells: Trichoplusia ni (Hi-Five) insect cells, baculovirus generated in Sf21; crude membranes
Put plainly: 3H-cGAMP filtration binding assay (HAQ STING). The note with it: competition with tritiated cGAMP ligand; T. ni cell membranes overexpressing full-length HAQ STING. An excerpt: The ability of compounds to bind STING is quantified by the ability to compete with tritiated cGAMP ligand for human STING receptor membrane using a radioactive filter-binding assay. The binding assay employs STING receptor obtained from Hi-Five cell membranes overexpressing full-length HAQ STING prepared in-house and tritiated cGAMP ligand also purified in-house.
The ability of compounds to bind STING is quantified by their ability to compete with tritiated cGAMP ligand for human STING receptor membrane using a radioactive filter-binding assay. The binding assay employs STING receptor obtained from Trichoplusia ni cell membranes (T. ni; Expression Systems, cat #94-002F, www.expressionsystems.com) overexpressing full-length HAQ STING and tritiated cGAMP ligand.
The basic HAQ STING filtration assay protocol is as follows:
The compounds were serially titrated by the Hamilton STARPlus CORE in a 96-well plate (Greiner, #651201) using a 1:3 ten-point dose response format. […] 148 uL of prepared membrane was then manually added to each well of a 96-well deep-well polypropylene plate (Fisher Scientific, #12-566-121). Following membrane addition, 2 uL of either titrated test compound, DMSO control (Sigma #276855), or cold cGAMP control was added to the appropriate wells using a BIOMEK FX. Compound and membrane then preincubated for 60 min at RT to allow compound binding to equilibrate. Following equilibration, 8 nM of [^3H] c-GAMP ligand was prepared by diluting into assay buffer, and 50 uL of this working stock was then manually added to each well of the assay plate. Plates were then incubated at RT for 60 min, and the contents of each assay plate were then filtered through a 96-well GF/B filter plate (PerkinElmer, #6005250) using a TOMTEC MACH III Cell Harvester equipped with 20 mM HEPES buffer (Fisher Scientific, #BP299500). The filter plates were then dried at 55° C. for 30 min using a pressurized oven before 30 uL of ULTIMA GOLD F scintillate was added to each well. Tritium levels for each reaction well were then measured using a PerkinElmer TopCount plate reader.
(§1) After normalization to controls, the percent activity for each compound concentration was calculated by measuring the amount of remaining radioactivity. The plot of percent activity versus the log of compound concentration was fit with a 4-parameter dose response equation to calculate EC50 values.

The target of a further experiment is T2, full-length WT STING (Homo sapiens, UniProt Q86WV6, H232R).
T2 construct: made in house; host or cells: Trichoplusia ni insect cells, baculovirus generated in Sf21; crude membranes
Nature of the experiment: 3H-cGAMP filtration binding assay (WT STING). The following applies: competition with tritiated cGAMP ligand; T. ni cell membranes overexpressing full-length WT STING. How it is done:
The ability of compounds to bind STING is quantified by their ability to compete with tritiated cGAMP ligand for human STING receptor membrane using a radioactive filter-binding assay. The binding assay employs STING receptor obtained from Trichoplusia ni cell membranes (T. ni; Expression Systems, cat #94-002F, www.expressionsystems.com) overexpressing full-length WT STING and tritiated cGAMP ligand.
The basic WT STING filtration assay protocol is as follows:
16 nM of [^3H] c-GAMP ligand was prepared by diluting into assay buffer, and 50 uL of this working stock was manually added to each well of the assay plate. After ligand addition, 2 uL of either titrated test compound, DMSO control (Sigma #276855), or cold cGAMP control was added to the appropriate wells using a BIOMEK FX. The serially titrated compound was prepared on a Hamilton STARPlus CORE in a 96-well plate (Greiner, #651201) using a 1:3 ten-point dose response format. Following compound addition, a 2.2 ug/ml working concentration of STING membrane (SEQ. ID. No. 3) was prepared by diluting concentrated membrane into assay buffer (1×PBS; Invitrogen #SH30028.02) and douncing 7× using a manual tissue homogenizer (Wheaton, #357546). 148 uL of this prepared membrane was then manually added to each well of a 96-well deep-well polypropylene plate (Fisher Scientific, #12-566-121). Compound, ligand, and membrane then incubated for 60 min at RT before the contents of each assay plate were filtered through a 96-well GF/B filter plate (PerkinElmer, #6005250) using a TOMTEC MACH III Cell Harvester equipped with 20 mM HEPES buffer (Fisher Scientific, #BP299500). The filter plates were then dried at 55° C. for 30 min using a pressurized VWR oven before 30 uL of ULTIMA GOLD F scintillate was added to each well. Tritium levels for each reaction well were then measured using a PerkinElmer TopCount plate reader.
as §1

Experiment [1] concerns IFN-β secretion from THP1 cells. Put plainly: IFN-β secretion in THP1 cell culture (5 h). The experiment is classed as cell-based, human. The following applies: for activation at 30 µM: Homo sapiens, THP-1, 5 h, read-out: % Effect at 30 μM relative to 2′3′-cGAMP. The procedure: The ability of compounds to stimulate the secretion of interferon-beta from THP1 cells was measured using a human IFN-β AlphaLISA kit (Perkin Elmer, Cat. No. AL265F). The basic protocol is as follows:
The cell viability and count was ascertained using a Beckman Coulter V-Cell XR cell counter. The cell suspension was centrifuged at 200×g for 5 min at RT. Cells were resuspended to a density of 0.8×10^6/mL in 37° C. assay medium. Subsequent liquid transfers were performed using either a Matrix electronic multichannel pipette or an Agilent Bravo Automated Liquid Handling Platform.
The assay was started by dispensing 40 μL of the previously prepared cell suspension into the wells of the plate containing compounds. After 5 h incubation at 37° C., 5% CO2 in a humidified atmosphere, the plate of cells and compounds was centrifuged at 200×g for 5 min at RT. […] To these supernatant-containing wells was added 10 μL of 5× Anti-Analyte Acceptor beads (50 μg/mL of AlphaLISA HiBlock Buffer) and incubated for 30 min at RT while shaking on an orbital plate shaker. To each well was added 10 μL of 5× Biotinylated Antibody Anti-analyte (5 nM in AlphaLISA HiBlock Buffer) and incubated on an orbital plate shaker for 60 min at RT or overnight at 4° C. To each well was added 25 μL of 2× SA-Donor beads (80 μg/mL in AlphaLISA HiBlock Buffer) and incubated for 30-45 min at RT in the dark while shaking on an orbital plate shaker. The plate was then read on a Perkin Elmer Envision (λex680 nm, λem=570 nm). The percent effect of the AlphaLISA signal at each compound concentration was calculated based on 30 uM cGAMP positive controls and 0.3% DMSO negative controls. The plot of percent effect versus the log of compound concentration was fit with a 4-parameter concentration response equation to calculate EC50 values.
Compounds of the disclosure were evaluated for IFN-β secretion in THP1 cell culture as described above.

Where [2] appears, read: THP1 cells, 5 h incubation, compound at 30 μM, 30 uM cGAMP = 100%.

Where two headings read alike, the source gives them in different places.

The source of these data is patent US11685761B2, “Cyclic di-nucleotide compounds as sting agonists” (Merck Sharp & Dohme Corp., priority 2017, dated 2023).

T2 sequence (Q86WV6 with tags, fused parts or gaps H232R): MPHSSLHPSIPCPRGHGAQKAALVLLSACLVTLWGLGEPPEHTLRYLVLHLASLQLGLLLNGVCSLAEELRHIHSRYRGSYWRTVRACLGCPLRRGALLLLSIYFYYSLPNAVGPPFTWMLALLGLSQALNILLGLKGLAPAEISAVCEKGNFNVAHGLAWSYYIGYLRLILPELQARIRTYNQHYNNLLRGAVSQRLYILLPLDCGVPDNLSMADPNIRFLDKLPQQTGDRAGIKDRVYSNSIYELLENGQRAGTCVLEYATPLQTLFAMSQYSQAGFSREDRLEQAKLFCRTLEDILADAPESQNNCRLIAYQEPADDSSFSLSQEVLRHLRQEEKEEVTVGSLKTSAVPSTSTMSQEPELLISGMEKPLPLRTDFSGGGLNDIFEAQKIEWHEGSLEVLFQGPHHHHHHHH
T1 sequence (Q86WV6 with tags, fused parts or gaps R71H/G230A/H232R/R293Q): as the sequence (Q86WV6 with tags, fused parts or gaps H232R) above, with R71H, G230A, R293Q counted along it

In the case of `Nc1ncnc2c1ncn2[C@@H]1O[C@@H]2CO[P@@](=O)(S)O[C@@H]3[C@H](O)[C@@H](CO[P@@](=O)(S)O[C@H]2[C@H]1O)O[C@H]3n1ccc(=O)n2ccnc12` (single isomer, unassigned) [Example 1], the EC50 was 77 nM on full-length HAQ STING and 1640 nM at full-length WT STING. Further, in experiment [1] (setting [2]), the activation at 30 µM was 143%.
On to `Nc1ncnc2c1ncn2[C@@H]1O[C@@H]2COP(=O)(S)O[C@@H]3[C@H](O)[C@@H](COP(=O)(S)O[C@H]2[C@@H]1F)O[C@H]3n1cnc2c(=O)n3cc[nH]c3nc21` (single isomer, unassigned) [Example 15], for which a half-maximal effect at full-length WT STING (EC50) was put at 43 nM. Besides, the “% Effect at 30 μM relative to 2′3′-cGAMP” value in experiment [1] (setting [2]) stood at 318%.
At full-length WT STING, `Nc1ncnc2c1ncn2[C@@H]1O[C@@H]2COP(=O)(S)O[C@@H]3[C@H](O)[C@@H](COP(=O)(S)O[C@H]2[C@@H]1F)O[C@H]3n1cnc2c(=O)n3cc[nH]c3nc21` (single isomer, unassigned) [Example 16] yielded a 50% effective concentration (EC50) of 90 nM. Further, in experiment [1] (setting [2]), the “% Effect at 30 μM relative to 2′3′-cGAMP” value came to 281%.
With `Nc1ncnc2c1ncn2[C@@H]1O[C@@H]2CO[P@@](=O)(S)O[C@@H]3C[C@@H](CO[P@](=O)(S)O[C@H]2[C@@H]1F)O[C@H]3n1ccc(=O)n2ccnc12` (single isomer, unassigned) [Example 20], the EC50 stood at 15 nM at full-length HAQ STING and 83 nM on full-length WT STING. Moreover, the activation at 30 µM in experiment [1] (setting [2]) came out at 169%.
In turn, `Nc1ncnc2c1ncn2[C@@H]1O[C@@H]2COP(=O)(S)O[C@@H]3[C@H](O)[C@@H](COP(=O)(S)O[C@H]2[C@@H]1F)O[C@H]3n1cnc2c(=O)n3c(nc21)NC(=O)C3` (stereo partly drawn) [Example 14, 3-[(5R,7R,8R,12aR,14R,15S,15aR,16R)-14-(6-amino-9H-purin-9-yl)-15-fluoro-16-hydroxy-2,10-dioxido-2,10-disulfanyloctahydro-12H-5,8-methanofuro[3,2-l][l,3,6,9,11,2,10]pentaoxadiphosphacyclotetradecin-7-yl]-3H-imidazo[1,2-a]purine-6,9(5H,7H)-dione] came in with an EC50 on full-length WT STING of 433 nM. In addition, the activation at 30 µM in experiment [1] (setting [2]) is 12%.
`Nc1nc2c(ncn2[C@@H]2O[C@@H]3COP(=O)(S)O[C@H]4[C@@H](O)[C@H](n5ccc(=O)n6ccnc56)O[C@@H]4COP(=O)(S)O[C@@H]2[C@@H]3F)c(=O)[nH]1` (stereo partly drawn) [Example 31, 2-amino-9-[(5R,7R,8S,12aR,14R,15R,15aS,16R)-16-fluoro-15-hydroxy-2,10-dioxido-14-(5-oxoimidazo [1,2-a]pyrimidin-8(5H)-yl)-2,10-disulfanyloctahydro-12H-5,8-methanofuro[3,2-l][1,3,6,9,11,2,10]pentaoxadiphosphacyclotetradecin-7-yl]-1,9-dihydro-6H-purin-6-one] yielded an EC50 on full-length HAQ STING of 16 nM. Also, in experiment [1] (setting [2]), the activation at 30 µM turned out to be 28%.
The matching figures for `Nc1ccnc2c1ccn2[C@H]1C[C@@H]2OP(=O)(S)OC[C@H]3O[C@@H](n4ccc(=O)n5ccnc45)[C@H](OP(=O)(S)OC[C@H]2O1)[C@@H]3O` (stereo partly drawn) [Example 34, 8-[(5R,7R,8R,12aR,14R,15aS,16R)-14-(4-amino-1H-pyrrolo[2,3-b]pyridin-1-yl)-16-hydroxy-2,10-dioxido-2,10-disulfanyloctahydro-12H-5,8-methanofuro[3,2-l][1,3,6,9,11,2,10]pentaoxadiphosphacyclotetradecin-7-yl]imidazo[1,2-a]pyrimidin-5(8H)-one]: 1120 nM and 157%.
The molecule `Nc1nc2c(ncn2[C@@H]2S[C@@H]3COP(=O)(S)O[C@H]4[C@H](F)[C@H](n5ccc6c(=O)[nH]cnc65)O[C@@H]4COP(=O)(S)O[C@@H]2C3)c(=O)[nH]1` (stereo partly drawn) [Example 44, 2-amino-9-[(5S,7R,8R,12aR,14R,15S,15aR)-15-fluoro-2,10-dioxido-14-(4-oxo-3,4-dihydro-7H-pyrrolo[2,3-d]pyrimidin-7-yl)-2,10-disulfanyl-octahydro-12H-5,8-methanofuro[3,2-l] [1,3,9,11,6,2,10]tetraoxathiadiphosphacyclotetradecin-7-yl]-1,9-dihydro-6H-purin-6-one] gave a 50% effective concentration (EC50) on full-length HAQ STING of 1 nM. Further, the activation at 30 µM in experiment [1] (setting [2]) is 164%.
The matching figures for `Nc1cc2c(ncn2[C@@H]2O[C@@H]3COP(=O)(S)O[C@H]4[C@H](F)[C@H](n5ccc6c(=O)[nH]cnc65)O[C@@H]4COP(=O)(S)O[C@@H]2[C@@H]3F)c(=O)[nH]1` (stereo partly drawn) [Example 51, 6-amino-1-[(5R,7R,8S,12aR,14R,15S,15aR,16R)-15,16-difluoro-2,10-dioxido-14-(4-oxo-3,4-dihydro-7H-pyrrolo[2,3-d]pyrimidin-7-yl)-2,10-disulfanyl-octahydro-12H-5,8-methanofuro[3,2-l] [1,3,6,9,11,2,10]pentaoxadiphosphacyclotetradecin-7-yl]-1,5-dihydro-4H-imidazo[4,5-c]pyridin-4-one]: 13 nM and 113%.
Molecule `Nc1nc2c(ncn2[C@@H]2O[C@@H]3COP(=O)(O)O[C@H]4C[C@H](n5ccc6c(=O)[nH]cnc65)O[C@@H]4COP(=O)(S)O[C@@H]2C3)c(=O)[nH]1` (stereo partly drawn) [Example 54, 2-amino-9-[(5S,7R,8R,12aR,14R,15aS)-2-hydroxy-2,10-dioxido-14-(4-oxo-3,4-dihydro-7H-pyrrolo[2,3-d]pyrimidin-7-yl)-10-sulfanyloctahydro-12H-5,8-methanofuro[3,2-l][1,3,6,9,11,2,10]pentaoxadiphosphacyclotetradecin-7-yl]-1,9-dihydro-6H-purin-6-one] yielded an EC50 at full-length HAQ STING of 12 nM. In addition, in experiment [1], the “% Effect at 30 μM relative to 2′3′-cGAMP” value is reported as 68%.

The term EC50 denotes the concentration needed to bring the measured effect to its halfway point. Low values mean an effect from little substance, high ones a need for much substance.
